ChEMBL document CHEMBL1671626, “In vitro profiling of ceftaroline against a collection of recent bacterial clinical isolates from across the United States” (2008)
In brackets after ≈: the same amount, converted by molar mass.

Key:
Format in all cases: functional
[1] = test system: Staphylococcus aureus; assay: Antibacterial activity against methicillin-susceptible Staphylococcus aureus assessed as resistant isolates by CLSI M7-A7 broth microdilution method
[2] = test system: Moraxella catarrhalis; assay: Antibacterial activity against beta lactamase-positive Moraxella catarrhalis by CLSI M7-A7 broth microdilution method
[3] = test system: Escherichia coli; assay: Antibacterial activity against ceftazidime-susceptible Escherichia coli assessed as susceptible isolates by CLSI M7-A7 broth microdilution method
[4] = test system: Klebsiella pneumoniae; assay: Antibacterial activity against ceftazidime-susceptible Klebsiella pneumoniae by CLSI M7-A7 broth microdilution method
[5] = test system: Providencia sp.; assay: Antibacterial activity against ceftazidime-susceptible Providencia sp. assessed as susceptible isolates by CLSI M7-A7 broth microdilution method
[6] = test system: Staphylococcus aureus; assay: Antibacterial activity against methicillin-susceptible Staphylococcus aureus assessed as susceptible isolates by CLSI M7-A7 broth microdilution method
[7] = test system: Acinetobacter; assay: Antibacterial activity against multidrug-resistant Acinetobacter assessed as susceptible isolates by CLSI M7-A7 broth microdilution method
[8] = test system: Enterobacteriaceae; assay: Antibacterial activity against ceftazidime-nonsusceptible Enterobacteriaceae by CLSI M7-A7 broth microdilution method
[9] = test system: Streptococcus pyogenes; assay: Antibacterial activity against erythromycin-susceptible Streptococcus pyogenes by CLSI M7-A7 broth microdilution method
[10] = test system: Enterococcus faecium; assay: Antibacterial activity against vancomycin-resistant Enterococcus faecium by CLSI M7-A7 broth microdilution method
[11] = test system: Enterobacteriaceae; assay: Antibacterial activity against ceftazidime-nonsusceptible Enterobacteriaceae assessed as susceptible isolates by CLSI M7-A7 broth microdilution method
[12] = test system: Staphylococcus aureus; assay: Antibacterial activity against coagulase-negative and oxacillin-resistant Staphylococcus aureus assessed as resistant isolates by CLSI M7-A7 broth microdilution method
[13] = test system: Enterobacter cloacae; assay: Antibacterial activity against ceftazidime-susceptible Enterobacter cloacae assessed as susceptible isolates by CLSI M7-A7 broth microdilution method
[14] = test system: Escherichia coli; assay: Antibacterial activity against ceftazidime-susceptible Escherichia coli by CLSI M7-A7 broth microdilution method
[15] = test system: Streptococcus pyogenes; assay: Antibacterial activity against erythromycin-nonsusceptible Streptococcus pyogenes by CLSI M7-A7 broth microdilution method
[16] = test system: Staphylococcus aureus; assay: Antibacterial activity against coagulase-negative and oxacillin-susceptible Staphylococcus aureus assessed as susceptible isolates by CLSI M7-A7 broth microdilution method
[17] = test system: Acinetobacter; assay: Antibacterial activity against imipenem-susceptible Acinetobacter by CLSI M7-A7 broth microdilution method
[18] = test system: Staphylococcus aureus; assay: Antibacterial activity against coagulase-negative and oxacillin-resistant Staphylococcus aureus by CLSI M7-A7 broth microdilution method
[19] = test system: Acinetobacter; assay: Antibacterial activity against imipenem-susceptible Acinetobacter assessed as resistant isolates by CLSI M7-A7 broth microdilution method
[20] = test system: Proteus mirabilis; assay: Antibacterial activity against ceftazidime-susceptible Proteus mirabilis by CLSI M7-A7 broth microdilution method
[21] = test system: Streptococcus pneumoniae; assay: Antibacterial activity against penicillin-susceptible Streptococcus pneumoniae by CLSI M7-A7 broth microdilution method
[22] = test system: Haemophilus influenzae; assay: Antibacterial activity against beta lactamase-positive Haemophilus influenzae assessed as susceptible isolates by CLSI M7-A7 broth microdilution method
[23] = test system: Haemophilus influenzae; assay: Antibacterial activity against beta lactamase-negative Haemophilus influenzae assessed as susceptible isolates by CLSI M7-A7 broth microdilution method
[24] = test system: Enterobacter cloacae; assay: Antibacterial activity against ceftazidime-nonsusceptible Enterobacter cloacae assessed as susceptible isolates by CLSI M7-A7 broth microdilution method
[25] = test system: Streptococcus pneumoniae; assay: Antibacterial activity against penicillin-resistant Streptococcus pneumoniae assessed as susceptible isolates by CLSI M7-A7 broth microdilution method
[26] = test system: Staphylococcus aureus; assay: Antibacterial activity against methicillin-resistant Staphylococcus aureus assessed as resistant isolates by CLSI M7-A7 broth microdilution method
[27] = test system: Morganella morganii; assay: Antibacterial activity against ceftazidime-susceptible Morganella morganii by CLSI M7-A7 broth microdilution method
[28] = test system: Streptococcus agalactiae; assay: Antibacterial activity against erythromycin-susceptible Streptococcus agalactiae by CLSI M7-A7 broth microdilution method
[29] = test system: Acinetobacter; assay: Antibacterial activity against imipenem-susceptible Acinetobacter assessed as susceptible isolates by CLSI M7-A7 broth microdilution method
[30] = test system: Streptococcus pneumoniae; assay: Antibacterial activity against penicillin-susceptible Streptococcus pneumoniae assessed as resistant isolates by CLSI M7-A7 broth microdilution method
[31] = test system: Citrobacter freundii; assay: Antibacterial activity against ceftazidime-susceptible Citrobacter freundii assessed as susceptible isolates by CLSI M7-A7 broth microdilution method
[32] = test system: Morganella morganii; assay: Antibacterial activity against ceftazidime-susceptible Morganella morganii assessed as resistant isolates by CLSI M7-A7 broth microdilution method
[33] = test system: Streptococcus agalactiae; assay: Antibacterial activity against erythromycin-nonsusceptible Streptococcus agalactiae by CLSI M7-A7 broth microdilution method
[34] = test system: Klebsiella pneumoniae; assay: Antibacterial activity against ceftazidime-susceptible Klebsiella pneumoniae assessed as resistant isolates by CLSI M7-A7 broth microdilution method
[35] = test system: Enterococcus faecalis; assay: Antibacterial activity against vancomycin-resistant Enterococcus faecalis by CLSI M7-A7 broth microdilution method
[36] = test system: Staphylococcus aureus; assay: Antibacterial activity against methicillin-susceptible Staphylococcus aureus by CLSI M7-A7 broth microdilution method
[37] = test system: Enterobacter cloacae; assay: Antibacterial activity against ceftazidime-nonsusceptible Enterobacter cloacae by CLSI M7-A7 broth microdilution method
[38] = test system: Serratia marcescens; assay: Antibacterial activity against ceftazidime-susceptible Serratia marcescens assessed as resistant isolates by CLSI M7-A7 broth microdilution method
[39] = test system: Serratia marcescens; assay: Antibacterial activity against ceftazidime-susceptible Serratia marcescens by CLSI M7-A7 broth microdilution method
[40] = test system: Acinetobacter; assay: Antibacterial activity against multidrug-resistant Acinetobacter by CLSI M7-A7 broth microdilution method
[41] = test system: Streptococcus pneumoniae; assay: Antibacterial activity against penicillin-resistant Streptococcus pneumoniae by CLSI M7-A7 broth microdilution method
[42] = test system: Streptococcus viridans; assay: Antibacterial activity against penicillin-susceptible Streptococcus viridans by CLSI M7-A7 broth microdilution method
[43] = test system: Escherichia coli; assay: Antibacterial activity against ceftazidime-nonsusceptible Escherichia coli by CLSI M7-A7 broth microdilution method

C[C@@H](O)[C@H]1C(=O)N2C(C(=O)O)=C(SCCNC=N)C[C@H]12 [IMIPENEM ANHYDROUS]
Activity [1]: 0.3% | MIC [2]: ≤ 0.12 mg/L | MIC50 [2]: ≤ 0.12 mg/L | MIC90 [2]: ≤ 0.12 mg/L | Activity [3]: 100% | MIC [4]: 0.12 mg/L (≈ 0.401 µM) | MIC50 [4]: 0.12 mg/L (≈ 0.401 µM) | MIC90 [4]: 0.5 mg/L (≈ 1.67 µM) | Activity [5]: 100% | Activity [6]: 99.7% | Activity [7]: 68.8% | MIC50 [8]: 0.25 mg/L (≈ 0.835 µM) | MIC90 [8]: 4 mg/L (≈ 13.4 µM) | MIC [9]: ≤ 0.015 mg/L | MIC50 [9]: ≤ 0.015 mg/L | MIC90 [9]: ≤ 0.015 mg/L | MIC [10]: > 16 mg/L | MIC50 [10]: > 16 mg/L | MIC90 [10]: > 16 mg/L | Activity [11]: 92.3% | Activity [12]: 16.4% | Activity [13]: 100% | MIC50 [14]: 0.12 mg/L (≈ 0.401 µM) | MIC90 [14]: 0.25 mg/L (≈ 0.835 µM) | MIC [15]: ≤ 0.015 mg/L | MIC50 [15]: ≤ 0.015 mg/L | MIC90 [15]: ≤ 0.015 mg/L | Activity [16]: 100% | MIC50 [17]: 0.25 mg/L (≈ 0.835 µM) | MIC90 [17]: 0.5 mg/L (≈ 1.67 µM) | MIC50 [18]: 0.5 mg/L (≈ 1.67 µM) | MIC90 [18]: 16 mg/L (≈ 53.4 µM) | Activity [19]: 0% | MIC50 [20]: 2 mg/L (≈ 6.68 µM) | MIC90 [20]: 4 mg/L (≈ 13.4 µM) | MIC [21]: ≤ 0.015 mg/L | MIC50 [21]: ≤ 0.015 mg/L | MIC90 [21]: ≤ 0.015 mg/L | Activity [22]: 100% | Activity [23]: 100% | Activity [24]: 97.1% | Activity [25]: 12.5% | Activity [26]: 13.5% | MIC50 [27]: 2 mg/L (≈ 6.68 µM) | MIC90 [27]: 2 mg/L (≈ 6.68 µM) | MIC [28]: ≤ 0.015 mg/L | MIC50 [28]: ≤ 0.015 mg/L | MIC90 [28]: 0.03 mg/L (≈ 0.1 µM) | Activity [29]: 100% | Activity [30]: 0.5% | Activity [31]: 100% | Activity [32]: 0% | MIC [33]: ≤ 0.015 mg/L | MIC50 [33]: ≤ 0.015 mg/L | MIC90 [33]: 0.03 mg/L (≈ 0.1 µM) | Activity [34]: 0% | MIC50 [35]: 1 mg/L (≈ 3.34 µM) | MIC90 [35]: 2 mg/L (≈ 6.68 µM) | MIC [36]: ≤ 0.12 mg/L | MIC50 [36]: ≤ 0.12 mg/L | MIC90 [36]: ≤ 0.12 mg/L | MIC50 [37]: 0.25 mg/L (≈ 0.835 µM) | MIC90 [37]: 0.25 mg/L (≈ 0.835 µM) | Activity [38]: 0% | MIC50 [39]: 0.5 mg/L (≈ 1.67 µM) | MIC90 [39]: 1 mg/L (≈ 3.34 µM) | MIC50 [40]: 0.5 mg/L (≈ 1.67 µM) | MIC90 [40]: 32 mg/L (≈ 107 µM) | MIC50 [41]: 0.25 mg/L (≈ 0.835 µM) | MIC90 [41]: 1 mg/L (≈ 3.34 µM) | MIC [42]: ≤ 0.015 mg/L | MIC50 [42]: ≤ 0.015 mg/L | MIC90 [42]: 0.06 mg/L (≈ 0.2 µM) | MIC50 [43]: 0.25 mg/L (≈ 0.835 µM) | MIC90 [43]: 1 mg/L (≈ 3.34 µM)
